Legend:
α-amylase = target: T1, α-amylase (Sus scrofa, UniProt P00690); experiment: High-throughput starch hydrolase inhibition assay (turbidity, corn starch); type: biochemical
T1 sequence (P00690 16-511): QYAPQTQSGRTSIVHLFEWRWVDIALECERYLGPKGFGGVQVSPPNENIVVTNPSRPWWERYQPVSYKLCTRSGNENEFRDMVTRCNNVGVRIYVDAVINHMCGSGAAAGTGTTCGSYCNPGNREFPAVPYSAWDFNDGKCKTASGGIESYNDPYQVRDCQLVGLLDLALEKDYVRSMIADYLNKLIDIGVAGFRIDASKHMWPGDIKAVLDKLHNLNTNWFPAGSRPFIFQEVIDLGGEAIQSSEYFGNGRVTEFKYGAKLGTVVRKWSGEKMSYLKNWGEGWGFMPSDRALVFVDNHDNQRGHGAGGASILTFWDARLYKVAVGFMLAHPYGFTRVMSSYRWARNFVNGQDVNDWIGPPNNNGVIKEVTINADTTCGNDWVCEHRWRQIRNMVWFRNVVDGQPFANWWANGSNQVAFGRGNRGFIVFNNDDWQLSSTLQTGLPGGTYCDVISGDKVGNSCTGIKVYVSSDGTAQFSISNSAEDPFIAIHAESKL
Description: (§1) The inhibitory activity of each fraction obtained on α-amylase and α-glucosidase were determined using the turbidity measurement according to a reported method (Liu, Song, Wang, & Huang, 2011, Journal of agricultural and food chemistry 2011 Vol. 59 Issue 18 Pages 9756-9762). Corn starch (20 mg/mL) was suspended in sodium phosphate buffer (0.1 M, pH 6.9) and gelatinized at 100° C. for 2.5 min. The inhibitor solution was diluted in buffer to appropriate concentrations. Acarbose was used as a positive control and a reference standard. α-amylase solution (2 U/mL in buffer, 20 μL) or α-glucosidase solution (1×10−2 U/mL in buffer) was pre-incubated with inhibitor solution (20 μL) with series of concentrations in a 96-well microplate and kept at 37° C. for 15 min. The reaction was initiated by injecting 60 μL of the gelatinized corn starch solution. The turbidity changes were recorded at 660 nm every minute for 2 h using a Synergy HT microplate reader (Biotek Instruments Inc., Winooski, VT, USA). The inhibition percentage was calculated using Equation 10.
(§2) Inhibition (%)=(AUCsample−AUCcontrol)/AUCsample×100% (Equation 10)
(§3) Where AUCsample is the area under the inhibitory curve and AUCcontrol is the area under the curve negative control. The IC50 can be defined as the concentration of an inhibitor that produces 50% inhibition of enzyme activity under a specified assay condition. It was obtained from interpolation of percentage of inhibition against inhibitor concentration curve. In order to avoid run-to-run error due to fluctuation of enzymatic activity, the acarbose equivalent (AE) was used to express the inhibitory activity of sample based on the following equation:
(§4) AE of a sample=IC50 of acarbose/IC50 of a sample (Equation 11)

[1] = Determination of pKa values by 13C NMR spectroscopy under argon; type: physicochemical
Description: Luteolin (200 mg) was added in the three-necks round bottle flask fitted with a pH meter under argon (FIG. 12). Degassed water (20 mL) was added with stirring. To the solution, degassed aqueous KOH solution was injected through a syringe to adjust the pH. Aliquots (500 μL) of samples at a given pH value were transferred to 5 mm NMR tubes (Armar Chemicals, Switzerland). To the same NMR tube, deuterium oxide (D20, 5.0 μL) was added introduced for deuterium lock and a DMSO-d6 solution encapsulated in capillary tube (FIG. 12) was placed in the tube as the external standard for (at 2.50 ppm for CD3SOCD3, H. E. Gottlieb, V. Kotlyar & A. Nudelman, J. Org. Chem. 1997, 62, 7512-7515). The spectra were recorded and analyzed with MestReNova (Mestrelab research, version 5.2.5-4119). The resulting sigmoidal curve was subjected to nonlinear curve fitting using Prism® (GraphPad, version 5.0b and 5.0f). The dissociation constant pKa was calculated using the Henderson-Hasselback equation (Equation 1-4).
Where LH4, LH3^−, LH2^2−, LH^3− and L^4− are the species of luteolin in fully protonated form, first deprotonated, second deprotonated, third deprotonated 100% deprotonated form.
The chemical shift of the carbons in luteolin is dependent on the relative concentrations of the conjugate pair. For a solution at pH within pKa1 range, and the species in solution is ˜100% protonated (LH4), and the chemical shifts are that of the protonated species, δlow−1. For a solution at a higher pH the species in solution is first deprotonated (LH3^−), and the chemical shifts are that of the deprotonated species, δhigh−1.
Equation 7-8 were applied to determine the mole fraction of conjugate pair from chemical shift of a specific carbon. The assignment of ^13C NMR of luteolin was further confirmed by HSQC and HMBC methods with 2D correlation with ^1H NMR.

[2] = Solubility in water (observation); type: physicochemical; details: in water or slightly basic aqueous solution
blood glucose = experiment: Glycemic response of mice after starch gavage; type: in vivo
Description: A 10% (w/v) starch solution was prepared by addition of distilled water to reagent grade corn starch and heating the solution it in a boiling water bath for about 15 minutes until it was completely gelatinized. 8-week-old male wild-type C57BL/6J mice were fasted overnight (free water intake), and weighed the next day. The tail of the mice was trimmed and the blood was taken for measurement of fasting blood glucose concentration with a Roche blood glucose meter. Feeding method a, “YX2+Starch”: Luteolin dimer (2a) was gavaged as a 2 mg/mL water solution, at the dosage level of 20 mg/kg body weight of the animal. Thirty minutes later, the 10% (w/v) starch solution was gavaged at 1 g/kg body weight. Feeding method b, “Starch (+YX2)”: Luteolin dimer (2a) was mixed with starch at 0.2% ratio by dried weight and mixed with water (1:9 by weight) to give a slurry labelled as Starch (+YX2) (FIG. 41). The mixture was gavaged to mice at with 1 g/kg body weight. In comparison, luteolin (1a or YX1) was mixed with starch at 0.2% by weight. The resulting mixture was further mixed with water to give 10% starch slurry labelled as starch (+YX1) (FIG. 41). The mice were gavaged with 1 g/kg body weight. The blood glucose values were measured at 30, 60, 90, 120 minutes to make the blood glucose curve, GraphPad draws the blood glucose response curve after meal, and the area under the curve was calculated.

[3] = literature (Electrochim. Acta 2013); cited from earlier work
[4] = tested on: Aspergillus niger ATCC 16888; experiment: Antifungal activity, radial growth technique on PDA medium; type: cell-based; details: ATCC16888, read-out: IC50, inhibition of the growth of A. niger
Description: The antifungal activity was evaluated against two fungi, Aspergillus niger ATCC 16888 and Botrytis cinerea ATCC 11542, isolated and identified with ITS gene (GenBank accession number AY373852, A. S. Taha et al., BioResources 2019, 14, 6025-6046). The bioassay was evaluated using the radial growth technique method (P. Wayne, Reference method for broth dilution antifungal susceptibility testing of yeasts, approved standard. CLSI document M27-A2, 2002). Both fungal strains were cultivated aerobically on PDA medium at 25° C. for 14 days. The fungal spores were collected with sterile cotton swabs and suspended in sterile water, and the concentrations were adjusted according to the requirements of the antifungal assays to be performed.
Flavonoids oligomers were dissolved in DMSO ([…]), then transferred into sterilized warm PDA medium (40 to 45° C.) to achieve a final concentration of 1.0 mg/mL, 0.6 mg/mL and 0.4 mg/mL, before immediately pouring into 24-well sterile plastic microtitration plates containing flat-bottomed wells (Corning Incorporated, costar). […]
From a 7-day-old colony, the fungus with discs of 9 mm diameter was transferred to the center of the treated PDA plates and controls. […] All the tested concentrations, as well as positive and negative controls, were measured in triplicate.

α-glucosidase = experiment: High-throughput starch hydrolase inhibition assay (turbidity, corn starch); type: biochemical
Description: as §1, §2, §3, §4

[5] = 0.2% mixture of compound in starch, gavaged at 1 g/kg body weight

activity in inhibiting α-amylase compared with acarbose (α-amylase)	IC50 [4] [nM]	activity in inhibiting α-glucosidase compared with acarbose (α-glucosidase)	Compound	pKa3 ([1]; C(3′)-OH)	pKa2 ([1]; C(4′)-OH)	pKa4 ([1]; C(5)-OH)	pKa1 ([1]; C(7)-OH, first deprotonation)	solubility [2]	glycemic response (blood glucose; [5])	pKa1, literature values [3]	glycemic response (blood glucose; 20 mg/kg by gavage 30 minutes before starch at 1 g/kg body weight (curve YX2+starch))	glycemic response (blood glucose; mice fed only with compound at 20 mg/kg body weight, no starch)
comparable	860	comparable	O=c1cc(-c2ccc(O)c(O)c2-c2c(O)cc3oc(-c4ccc(O)c(O)c4)cc(=O)c3c2O)oc2cc(O)cc(O)c12 [Compound 2a, 6-(6-(5,7-dihydroxy-4-oxo-4H-chromen-2-yl)-2,3-dihydroxyphenyl)-2-(3,4-dihydroxyphenyl)-5,7-dihydroxy-4H-chromen-4-one]	–	–	–	–	–	comparable to that of the mice fed only with same dose of starch	–	no glycemic response	did not lead to glycemic response
even higher	–	even higher	O=c1cc(-c2ccc(O)c(O)c2-c2c(O)cc3oc(-c4ccc(O)cc4)cc(=O)c3c2O)oc2cc(O)cc(O)c12 [Compound 2b, 6-(6-(5,7-dihydroxy-4-oxo-4H-chromen-2-yl)-2,3-dihydroxyphenyl)-5,7-dihydroxy-2-(4-hydroxyphenyl)-4H-chromen-4-one]	–	–	–	–	–	–	–	–	–
–	960	–	O=c1cc(-c2ccc(O)c(O)c2-c2c(O)cc3oc(-c4ccc(O)c(O)c4-c4c(O)cc5oc(-c6ccc(O)c(O)c6)cc(=O)c5c4O)cc(=O)c3c2O)oc2cc(O)cc(O)c12 [Compound 3a, 6-(6-(5,7-dihydroxy-4-oxo-4H-chromen-2-yl)-2,3-dihydroxyphenyl)-2-(2-(2-(3,4-dihydroxyphenyl)-5,7-dihydroxy-4-oxo-4H-chromen-6-yl)-3,4-dihydroxyphenyl)-5,7-dihydroxy-4H-chromen-4-one]	–	–	–	–	–	–	–	–	–

Compound	activity in inhibiting α-amylase compared with acarbose (α-amylase)	IC50 [4] [nM]	activity in inhibiting α-glucosidase compared with acarbose (α-glucosidase)	pKa3 ([1]; C(3′)-OH)	pKa2 ([1]; C(4′)-OH)	pKa4 ([1]; C(5)-OH)	pKa1 ([1]; C(7)-OH, first deprotonation)	solubility [2]	glycemic response (blood glucose; [5])	pKa1, literature values [3]	glycemic response (blood glucose; 20 mg/kg by gavage 30 minutes before starch at 1 g/kg body weight (curve YX2+starch))	glycemic response (blood glucose; mice fed only with compound at 20 mg/kg body weight, no starch)
O=c1cc(-c2ccc(O)c(O)c2)oc2cc(O)cc(O)c12 [luteolin]	no activity	–	–	12.78	8.93	13.03	8.00	poor solubility	almost the same as that of the mice fed only with same dosage of starch	~6.0	–	–
